Patent US6866995B1, “Method to enable assessment of growth and death of micro-organisms” (priority 1999, dated 2005)
Read-outs that look alike come from different tables or passages of the source.

Experiments:
[1] = test system: E. coli with plasmid pGFP+luc*; format: cell-based, E. coli strain MC1061; conditions: 5 min
Procedure: Environ. Microbiol. 64: 515-519.
The measurements were done with a combined fluoro- and luminometer, Fluoroscan Ascent FL, provided by Labsystems Ltd. (Helsinki, Finland). Cell growth was simultaneously followed with a flow cytometer.
For the measurements, 100 μl of bacterial culture was pipetted into the microtiter plate wells. Fluorescence was measured using 485 nm for excitation and 510 nm for emission. Measuring time was 20 ms. After the fluorescence measurement 100 μl of luciferin in 0.1 M citric acid-sodium citrate buffer (pH 5.0) was dispensed into the wells and the plate was shaken for two minutes (shaking diameter 1 mm, 1 020 rpm), after which luminescence was recorded with a measuring time of 1000 ms.

[2] = test system: E. coli with plasmid pGFP+luc*; conditions: for death: incubation 5 min, 30° C., FIGS. 4 and 5 (plating and live/dead staining)
Procedure: (§1) One colony from a pure culture plate was inoculated in 5 ml of LB-medium with ampicillin (100 μg/ml) and grown at +37° C. in a shaker, 250 rpm, for about three hours. After that, the number of cells per milliliter was determined with flow cytometry by using fluorescent spherical latex particles as a reference. One million cells were then removed to an erlenmeyer with 50 ml of LB medium and ampicillin. The culture was grown over night in a shaker, 190 rpm, at room temperature to prevent the culture from growing into the stationary phase during the night. In the morning, the culture was transferred to and grown in a shaker, 330 rpm, until the stationary phase was reached or used after growth at +30° C. for about 1 h to study the influence of ethanol or serum complement as described below.
(§2) Ethanol (Aa, Primalco Oy) was diluted into pure water to obtain concentrations of […], 25, 10, 5, 1 and 0% of ethanol when 500 μl of said dilution was added to 500 μl of said culture in an eppendorf tube. The mixture was vortexed and incubated for 5 minutes before measuring fluorescence and luminescence. Live cells were again counted by plating and also by live/dead staining. In the live/dead protocol used the stain cyto 9 stains all cells whereas propidium iodide stains only the dead cells. After staining, cells are passed through a flow cytometer, with which dead and live cells can be differentiated and their proportion determined. (Virta et al. (1998) Appl. Environ. Microbiol. 64: 515-519.)
The influence of serum complement on the said recombinant E. coli strain was studied using an incubation time of 90 min as described for a different recombinant E. coli strain used in Virta et al. (1998) Appl. Environ. Microbiol. 64: 515-519.
Samples for plating were diluted 10^2 to 10^7 fold with 150 mM NaCl and plated onto L agar plates (L broth containing 1.6% agar). Colonies were counted after overnight incubation at 37° C.

[3] = test system: E. coli with plasmid pGFP+luc*; conditions: with increased ethanol concentration, 5 min, FIG. 5
Procedure: as §1
as §2, with “In the live/dead protocol used the stain cyto 9 stains all cells whereas propidium iodide stains only the dead cells.” left out, “(Virta et al. (1998) Appl. Environ. Microbiol. 64: 515-519.)” left out

CCO [ethanol, Ethanol]
fluorescence ([1]; whatever the ethanol concentration (0-50%), FIG. 2): essentially constant | luminescence ([1]; with increased ethanol concentration, FIG. 3): dropped dramatically | death ([2]; ethanol concentrations above 10%): very pronounced significance | death ([2]; ethanol concentrations below 5%): more or less unsignificant | live cell count according to plate count ([2]; with increased ethanol concentration, 5 min, FIG. 4): dramatically decreasing | percentage of live cells according to the live/dead staining [3]: dramatically decreasing
